The Cmax is the peak of the concentration-time curve. Broadly, the half-life is the time needed for the level to fall by half in the phase considered.

Here are results for two compounds from patent EP2581085A1, “Pharmaceutical composition for nasal administration of metopimazine” (priority 2011, dated 2013).

The conditions of data set [1]: hepatic first-pass effect, cited from earlier work.
A short description of data set [2]: Pharmacokinetic study in rabbit after nasal or IV administration (plasma MPZ and AMPZ by HPLC with fluorescence detection). In kind it is in vivo, lapin. How it is done:
Le passage par voie nasale de la métopimazine a été caractérisé chez l'animal dans un modèle de référence qu'est le lapin. Les lapins utilisés étaient des femelles de race néozélandaises provenant de chez Charles River (poids 3,5 kg). La formulation testée chez le lapin a été la suivante: • Formule 1 : • Métopimazine : 10mg • NaCl : QSP 300mOsm • Tampon Citrate : QSP pH 5.5 • Eau : QSP 1ml
La posologie administrée au lapin a été calculée à partir de la dose pédiatrique soit 1 mg / kg / jour en 3 prises. Le poids des lapins étant de 3,5 kg, la dose par prise est d'environ 1 mg. La dose est donc administrée par instillation de 50 µl dans chaque narine d'une solution à 10 mg/ml.
Avant toute manipulation, le lapin est placé dans des cages de contention. Un cathéter est introduit sur chaque oreille du lapin au niveau de la veine marginale et d'une artère. Le cathéter veineux a permis d'injecter le soluté de remplissage (sérum physiologique) et le cathéter artériel a servi aux différents prélèvements sanguins tout au long de la manipulation. Les prélèvements ont été réalisés à temps réguliers : 0, 5, 10, 20, 30, 60, 120, 240 et 480 minutes. La préparation est administrée aux lapins en position supinale. Les lapins sont être maintenus dans cette position au moins 5 minutes après administration pour assurer le contact entre l'épithélium et la formulation. La solution nasale est administrée par instillation d'un volume de 50µL avec une micropipette dans chaque narine du lapin. Le volume du prélèvement est d'environ 3 mL. Après 2 h, les lapins sont placés dans leur cage avec un libre accès à la nourriture et à l'eau dans l'attente des prélèvements suivants. Le dosage est réalisé par CLHP avec détection par fluorescence en utilisant la méthode décrite par Angelo et al. J of Chrom, 496; 472-477, (1989). L'appareil de dosage est constitué d'une pompe Jasco, d'un injecteur Kontron et d'un détecteur de fluorescence Varian Prostar.
L'étude pharmacocinétique a été conduite sur le logiciel PK Solutions 2.
La formule 1 a été comparée à la voie IV. La métopimazine a été administrée dans la veine marginale de l'oreille. Les concentrations plasmatiques de la MPZ et l'AMPZ sont représentées également dans la figure 2.
Selon le même protocole, une autre formulation a été testée. • Formule 2 : • Métopimazine : 10mg • DMβCD : 21mg • NaCl : QSP 300mOsm • Tampon Citrate : QSP pH 5.5 • Eau : QSP 1ml

The nature of data set [3]: Local tolerance study in rabbit, nasal administration for 7 days, histology of the anatomical piece. Type of data set: in vivo, lapin. On the set-up: key: Non renseigné : absent ou négligeable; +: faible intensité; ++: Intensité modérée; +++: Intensité marquée. The conditions noted are these: 7 days of Formule 1 200µLx3/J. How it is done: La tolérance a été étudiée chez le lapin après administration de 2mg de Formule 1 X3/j pendant 7 jours. Chaque lapin était son propre contrôle, puisqu'une narine recevait le Vogalène pendant que la seconde recevait une solution de sérum physiologique. Après l'exposition, les lapins sont sacrifiés afin de récupérer et d'étudier la pièce anatomique.

Setting [4] is: MPZ in plasma after IV administration of métopimazine, lapin, n=2.
[5] abbreviates: sampling 14h after last administration, one rabbit and one sample (A-D).
[6] abbreviates: sampling 70h after last administration, each column = one rabbit and one sample (A-C).

SMILES strings stand for the structures. Read-outs that look alike come from different tables or passages of the source.

For `CS(=O)(=O)c1ccc2c(c1)N(CCCN1CCC(C(N)=O)CC1)c1ccccc1S2` [MPZ, métopimazine], the “biodisponibilité par voie orale” value in data set [1] (oral route) is 22,3%. The “biodisponibilité par voie rectale” value in data set [1] (rectal route) was 19,5%. In data set [2] (MPZ in plasma after IV administration of métopimazine (veine marginale de l'oreille), lapin, n=2, read-out: t max (converted)), the t max is 5 min. Further, in data set [2] (setting [4]), the Cmax worked out at 17.4 ng/mL and the half-life turned out to be 72 min. Besides, the AUC in data set [2] (MPZ in plasma after IV administration of métopimazine, lapin, n=2, read-out: AUC (converted)) was 23.4 ng·h/mL. The t max in data set [2] (MPZ in plasma after nasal administration, 50 µl in each nostril of a 10 mg/ml solution (about 1 mg), lapin, n=2, read-out: t max (converted)) is 5 min. Also, the Cmax in data set [2] (MPZ in plasma after nasal administration, about 1 mg, lapin, n=2) was determined as 9.2 ng/mL. In addition, the bioavailability in data set [2] (plasma, 1 mg, lapin, nasal route compared with IV, b45 = formulation tested (Formule 1), b50 = Formule 2, read-out: biodisponibilité de la MPZ par voie nasale) is approximately 50%. Further, in data set [3] (setting [5]), the “Hyperplasie des cellules de réserve” value is “+”, the “Inflammation dans le chorion” value is recorded as “+” and the “Perte des cellules caliciformes” value is “+”. In data set [3] (setting [6]), the “Hyperplasie des cellules de réserve” value is “+ and ++”; the “Inflammation épithéliale” value was “+ and + avec eosinophiles et lymphocytes”; the “Perte des cellules caliciformes” value was “+++ and + and ++”; the Perte des cils result is “+++ and + and ++”.
On to `CS(=O)(=O)c1ccc2c(c1)N(CCCN1CCC(C(=O)O)CC1)c1ccccc1S2` [AMPZ, acide de métopimazine], for which, in data set [2] (in vivo), the t max is on record as 10 min. Also, in data set [2] (in vivo, iv), the AUC worked out at 5765 ng/mL/min, the C max was found to be 40 ng/mL, the T1/2 is given as 105 min and the t max was determined as 20 min.
